# Laboratory results taken from ChEMBL document CHEMBL1142732, “In-depth study of tripeptide-based alpha-ketoheterocycles as inhibitors of thrombin. Effective utilization of the S1' subsite and its implications to structure-based drug design” (J Med Chem, 2005).
# Molecular target: T1, Serine protease 1 (Bos taurus, UniProt P00760)
# T1 sequence (P00760 whole entry): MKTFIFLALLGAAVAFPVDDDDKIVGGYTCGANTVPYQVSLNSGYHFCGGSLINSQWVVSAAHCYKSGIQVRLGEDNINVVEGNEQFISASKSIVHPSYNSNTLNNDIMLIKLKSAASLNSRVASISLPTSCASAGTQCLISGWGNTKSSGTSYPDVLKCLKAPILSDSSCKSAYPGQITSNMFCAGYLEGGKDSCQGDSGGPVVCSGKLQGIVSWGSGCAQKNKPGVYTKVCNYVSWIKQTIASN
# Assay: Inhibitory concentration against bovine trypsin; Not determined
# Settings: not given
row,IC50,Compound
1,30 µM,CN[C@H](Cc1ccccc1)C(=O)N1CCC[C@H]1C(=O)N[C@H](CCCN=C(N)N)Cc1nc2ccccc2s1

# Molecular target: T1, Serine protease 1
# Assay: Inhibitory concentration against bovine trypsin
# Settings: not given
row,IC50,Compound
1,0.63 µM,CN[C@H](Cc1ccccc1)C(=O)N1CCC[C@H]1C(=O)N[C@@H](CCCCN=C(N)N)C(=O)c1nc2ccccc2s1
2,0.0058 µM,N=C(N)NCCCC(NC(=O)[C@@H]1CCCN1C(=O)N[C@H](C=O)Cc1ccccc1)C(=O)c1nc2ccccc2s1 (stereo not given in full)
3,0.54 µM,CN[C@H](Cc1ccccc1)C(=O)N1CCC[C@H]1C(=O)N[C@@H](Cc1ccc(C(=N)N)cc1)C(=O)c1nc2ccccc2s1

row,Compound,IC50
1,CN[C@@H](C(=O)N1CCC[C@H]1C(=O)NC(CCCN=C(N)N)C(=O)c1nc2ccccc2s1)C(c1ccccc1)c1ccccc1 (stereo not given in full),0.352 µM

# Molecular target: T1, Serine protease 1
# Assay: Inhibitory concentration against bovine trypsin; NT=Not determined
# Settings: not given
row,IC50,Compound
1,32 µM,CN[C@H](Cc1ccccc1)C(=O)N1CCC[C@H]1C(=O)N[C@@H](CCCN=C(N)N)Cc1nc2ccccc2s1

# Test system: Oryctolagus cuniculus
# Assay: In vivo effective intravenous dose for that was determined in Rabbit deep vein thrombosis model
# Settings: not given
row,Compound,ED50
1,CN[C@H](Cc1ccccc1)C(=O)N1CCC[C@H]1C(=O)N[C@@H](CCCN=C(N)N)C(=O)c1nc2ccccc2s1,0.25 mg/kg
2,CN[C@H](Cc1ccccc1)C(=O)N1CCC[C@H]1C(=O)N[C@H](C=O)CCCNC(=N)N (stereo in doubt; 1b),0.21 mg/kg
3,CN[C@H](Cc1ccccc1)C(=O)N1CCC[C@H]1C(=O)NC(CCCN=C(N)N)C(=O)c1nc2ccc(C(=O)O)cc2s1 (stereo not given in full),0.43 mg/kg

# Molecular target: T2, Prothrombin (Homo sapiens, UniProt P00734)
# Assay: Binding affinity determined against human alpha thrombin
# Settings: not given
row,Compound,Ki
1,CN[C@H](Cc1ccccc1)C(=O)N1CCC[C@H]1C(=O)N[C@H](C=O)CCCNC(=N)N (stereo in doubt; 1b),0.018 µM
2,CN[C@H](Cc1ccccc1)C(=O)N1CCC[C@H]1C(=O)N[C@@H](Cc1ccc(C(=N)N)cc1)C(=O)c1nc2ccccc2s1,1.4 µM

# Test system: not listed separately
# Assay: Half life was determined in rat after an intravenous dose of 1 mg/kg
# Type: ADME, organism-based
# Design: dose 1 mg/kg, route intravenous
# Settings: in vivo
row,Compound,half-life
1,CN[C@H](Cc1ccccc1)C(=O)N1CCC[C@H]1C(=O)NC(CCCN=C(N)N)C(=O)c1nc2ccc(C(=O)O)cc2s1 (stereo not given in full),25 min

# Species on record: Homo sapiens
# Assay: Inhibitory concentration against gel filtered platelet aggregation induced by alpha thrombin
# Type: functional
# Settings: not given
row,Compound,IC50
1,CN[C@H](Cc1ccccc1)C(=O)N1CCC[C@H]1C(=O)N[C@@H](CCCN=C(N)N)C(=O)c1nc2ccccc2s1,0.032 µM
2,CN[C@H](Cc1ccccc1)C(=O)N1CCC[C@H]1C(=O)N[C@H](C=O)CCCNC(=N)N (stereo in doubt; 1b),0.083 µM
3,CN[C@@H](C(=O)N1CCC[C@H]1C(=O)NC(CCCN=C(N)N)C(=O)c1nc2ccccc2s1)C(c1ccccc1)c1ccccc1 (stereo not given in full),0.043 µM

# Molecular target: T1, Serine protease 1
# Assay: Binding affinity against bovine trypsin
# Settings: not given
row,Compound,Ki
1,CN[C@H](Cc1ccccc1)C(=O)N1CCC[C@H]1C(=O)N[C@H](C=O)CCCNC(=N)N (stereo in doubt; 1b),0.0091 µM
2,CN[C@H](Cc1ccccc1)C(=O)N1CCC[C@H]1C(=O)NC(CCCN=C(N)N)C(=O)c1nc2ccc(C(=O)O)cc2s1 (stereo not given in full),0.0027 µM

# Molecular target: T2, Prothrombin
# Assay: Inhibitory concentration against human alpha thrombin
# Settings: not given
row,Compound,IC50
1,CN[C@H](Cc1ccccc1)C(=O)N1CCC[C@H]1C(=O)N[C@@H](CCCN=C(N)N)C(=O)c1nc2ccccc2s1,0.029 µM
2,CN[C@H](Cc1ccccc1)C(=O)N1CCC[C@H]1C(=O)N[C@@H](CCCCN=C(N)N)C(=O)c1nc2ccccc2s1,8.4 µM
3,CN[C@H](Cc1ccccc1)C(=O)N1CCC[C@H]1C(=O)N[C@H](C=O)CCCNC(=N)N (stereo in doubt; 1b),0.085 µM
4,CN[C@@H](C(=O)N1CCC[C@H]1C(=O)NC(CCCN=C(N)N)C(=O)c1nc2ccccc2s1)C(c1ccccc1)c1ccccc1 (stereo not given in full),0.0045 µM
5,N=C(N)NCCCC(NC(=O)[C@@H]1CCCN1C(=O)N[C@H](C=O)Cc1ccccc1)C(=O)c1nc2ccccc2s1 (stereo not given in full),17 µM

# Test system: Cavia porcellus
# Assay: Percent change in blood pressure in guinea pig at 3 mg/kg dose
# Settings: not given
row,Compound,Delta BP
1,CN[C@H](Cc1ccccc1)C(=O)N1CCC[C@H]1C(=O)N[C@@H](CCCN=C(N)N)C(=O)c1nc2ccccc2s1,-85%
2,CN[C@@H](C(=O)N1CCC[C@H]1C(=O)NC(CCCN=C(N)N)C(=O)c1nc2ccccc2s1)C(c1ccccc1)c1ccccc1 (stereo not given in full),-54%

# Test system: not listed separately
# Assay: Oral half life was determined in conscious rat after 10 mg/kg dosage through gavage
# Type: ADME, organism-based
# Design: dose 10 mg/kg
# Settings: in vivo
row,Compound,half-life
1,CN[C@H](Cc1ccccc1)C(=O)N1CCC[C@H]1C(=O)NC(CCCN=C(N)N)C(=O)c1nc2ccc(C(=O)O)cc2s1 (stereo not given in full),60 min

# Molecular target: T2, Prothrombin
# Assay: Inhibition constant against human alpha thrombin
# Settings: not given
row,Compound,Ki
1,CN[C@H](Cc1ccccc1)C(=O)N1CCC[C@H]1C(=O)N[C@@H](CCCN=C(N)N)C(=O)c1nc2ccccc2s1,0.00018 µM
2,CN[C@H](Cc1ccccc1)C(=O)N1CCC[C@H]1C(=O)N[C@H](C=O)CCCNC(=N)N (stereo in doubt; 1b),0.018 µM

# Species on record: Cavia porcellus
# Assay: animal or person
# Settings: Blood, iv
# Description: In vivo effective intravenous dose for eliciting a 25% decrease in blood pressure in anesthetized Guinea pig
row,Compound,ED25
1,CN[C@H](Cc1ccccc1)C(=O)N1CCC[C@H]1C(=O)N[C@@H](CCCN=C(N)N)C(=O)c1nc2ccccc2s1,0.9 mg/kg
2,CN[C@H](Cc1ccccc1)C(=O)N1CCC[C@H]1C(=O)N[C@H](C=O)CCCNC(=N)N (stereo in doubt; 1b),28.6 mg/kg
3,CN[C@H](Cc1ccccc1)C(=O)N1CCC[C@H]1C(=O)NC(CCCN=C(N)N)C(=O)c1nc2ccc(C(=O)O)cc2s1 (stereo not given in full),13 mg/kg

# Test system: Cavia porcellus
# Assay: Cardiovascular safety ratio ratiod (ED-25:ED50) estimation, which is based on a comparison of the hypotensive response in anesthetized guinea pigs to the anticoagulant / antithrombotic response in dogs
# Type: functional
# Settings: not given
row,Compound,Ratio
1,CN[C@H](Cc1ccccc1)C(=O)N1CCC[C@H]1C(=O)N[C@H](C=O)CCCNC(=N)N (stereo in doubt; 1b),43

# Species on record: Homo sapiens
# Assay: Inhibitory concentration of the compound was determined against gel filtered platelet aggregation induced by alpha thrombin
# Type: functional
# Settings: not given
row,Compound,IC50
1,CN[C@H](Cc1ccccc1)C(=O)N1CCC[C@H]1C(=O)NC(CCCN=C(N)N)C(=O)c1nc2ccc(C(=O)O)cc2s1 (stereo not given in full),0.041 µM

# Test system: not listed separately
# Assay: Oral bioavailability was determined in conscious rat after 10 mg/kg dosage through gavage
# Type: ADME, organism-based
# Settings: in vivo
row,Compound,bioavailability
1,CN[C@H](Cc1ccccc1)C(=O)N1CCC[C@H]1C(=O)NC(CCCN=C(N)N)C(=O)c1nc2ccc(C(=O)O)cc2s1 (stereo not given in full),3%

# Molecular target: T2, Prothrombin
# Assay: Binding affinity against human alpha thrombin; […]
# Settings: not given
row,Compound,Ki
1,CN[C@@H](C(=O)N1CCC[C@H]1C(=O)NC(CCCN=C(N)N)C(=O)c1nc2ccccc2s1)C(c1ccccc1)c1ccccc1 (stereo not given in full),Slow Binding

# Test system: Canis familiaris
# Assay: In vivo effective intravenous dose for that reduces thrombus weight accumulation on a silk fiber by 50% was determined in Dog arteriovenous shunt model
# Type: functional
# Settings: Canis lupus familiaris
row,Compound,ED50
1,CN[C@H](Cc1ccccc1)C(=O)N1CCC[C@H]1C(=O)N[C@@H](CCCN=C(N)N)C(=O)c1nc2ccccc2s1,0.46 mg/kg
2,CN[C@H](Cc1ccccc1)C(=O)N1CCC[C@H]1C(=O)N[C@H](C=O)CCCNC(=N)N (stereo in doubt; 1b),0.66 mg/kg
3,CN[C@H](Cc1ccccc1)C(=O)N1CCC[C@H]1C(=O)NC(CCCN=C(N)N)C(=O)c1nc2ccc(C(=O)O)cc2s1 (stereo not given in full),0.14 mg/kg

# Test system: Cavia porcellus
# Assay: Cardiovascular safety ratio ratiod (ED-25:ED50) estimation, which is based on a comparison of the hypotensive response in anesthetized guinea pigs to the anticoagulant / antithrombotic response in rabbit
# Type: functional
# Settings: not given
row,Compound,Ratio
1,CN[C@H](Cc1ccccc1)C(=O)N1CCC[C@H]1C(=O)N[C@H](C=O)CCCNC(=N)N (stereo in doubt; 1b),136

# Test system: Cavia porcellus
# Assay: Percent change in blood pressure in guinea pig at 10 mg/kg dose
# Settings: not given
row,Compound,Delta BP
1,CN[C@H](Cc1ccccc1)C(=O)N1CCC[C@H]1C(=O)N[C@H](C=O)CCCNC(=N)N (stereo in doubt; 1b),-21%
2,CN[C@H](Cc1ccccc1)C(=O)N1CCC[C@H]1C(=O)NC(CCCN=C(N)N)C(=O)c1nc2ccc(C(=O)O)cc2s1 (stereo not given in full),-32%
